{"source": "patent US9403842B2", "about": "“Prasugrel in non-crystalline form and pharmaceutical composition thereof” (ratiopharm GmbH, priority 2009, dated 2016)", "assay": "pH-dependent degradation", "assay_type": "physicochemical", "settings": "pH values of <3, after just 2 hours", "protocol": "At pH values of <3, degradation of more than 1% is observed after just 2 hours. This restricts the possible excipients used in the production of pharmaceutical formulations."}
{"smiles": "CC(=O)Oc1cc2c(s1)CCN(C(C(=O)C1CC1)c1ccccc1F)C2", "note": "(stereo not drawn) [prasugrel, 2-acetoxy-5-(α-cyclopropylcarbonyl-2-fluorobenzyl)-4,5,6,7-tetrahydrothieno[3,2-c]pyridine]", "values": [{"measurement": "degradation", "value": "more than 1%"}]}
